Data as given in US20030069169A1, “Co-administration of melanocortin receptor agonist and phosphodiesterase inhibitor for treatment of cyclic-AMP associated disorders” (priority 2001, published 2003).

Tests used:
human MC-1R = biological target: T1, human MC-1R (Homo sapiens, UniProt Q01726); assay: MC-1R cAMP SPA assay in HBL cells; type: cell-based; conditions: read-out: potency as agonist of the MC-1R
T1 construct: HBL cells, a human melanoma cell line licensed from Prof; G. Ghanem; endogenous in cells; host or cells: HBL human melanoma cells
Experimental: HBL cells, a human melanoma cell line licensed from Prof. G. Ghanem (Lab. of Oncology & Exp. Surgery, Free University of Brussels, Brussels, Belgium) were used as a source of the human MC-1R. cAMP was measured using the cAMP SPA Direct Screening Assay System from Amersham (RPA 559). 20,000 HBL cells were plated into each well of a half-area 96 well white plate and were used between 16-48 hours after plating. Cells were incubated at 37° C. for 15 minutes in 25 μM IBMX to inhibit phosphodieterase activity. As per kit instructions, Assay Buffer Concentrate was diluted 1 to 50 with dH2O to prepare Assay Buffer (50 mM acetate buffer containing 0.01% sodium azide). Vials containing rabbit anti-succinyl cAMP serum and the tracer, adenosine 3′,5′-cyclic phosphoric acid 2′-0-succinyl-3-[^125I] iodotyrosine methyl ester, were resuspended with 7.5 ml Assay Buffer. SPA anti-rabbit reagent (donkey anti-rabbit IgG coupled to SPA PVT beads) was resuspended with 15 ml Assay Buffer. All reagents were stored at 4° C. after reconstitution. Melanocortin ligands or compounds were prepared in DMSO and added to the IBMX-treated cells as 100×concentrated stocks. […] Plates were subsequently counted for 6 minutes per sample in a TopCount scintillation reader with background subtraction. Data was analyzed in relation to a cAMP standard curve.

[1] = tested on: LPS-induced TNF-α production; assay: endotoxin-induced TNF-α accumulation model in Balb/C mice; type: in vivo; conditions: for % Inhibition of LPS-induced TNF-α levels: balb/C mice, rolipram 10 ug/kg, NDP-MSH 2.5 mg/kg, alone or combined, co-administered with LPS by tail vein injection
Experimental: Melanocortin receptor agonists and cAMP-PDE inhibitors were evaluated for anti-inflammatory activity in vivo by using an endotoxin-induced TNF-α accumulation model in Balb/C mice. Compounds were administered either by s.c injection or co-injected with endotoxin in the tail vein. Both rolipram and melanocortin agonists inhibit endotoxin-induced TNF-α accumulation in this model.
FIG. 1 reports the results of administration of the compound of Example 11, below, in this model. Example 11 was administered by s.c. injection to five mice for each dose of 1.2 μmol/kg, 3.7 μmol/kg, 11.1 μmol/kg, 33.3 μmol/kg, and 100 μmol/kg. The compound was administered 1 hour prior to the LPS-induced challenge.
A second experiment was conducted in which the effect of the cAMP-PDE inhibitor rolipram and the melanocortin receptor agonist NDP-MSH was determined.
The four bar graphs of FIG. 2 reflect the inhibition in LPS-induced TNF-α a production in balb/C mice upon administration of (1) no agent (control); (2) 10 ug/kg ROLIPRAM (3) 2.5 mg/kg NDP-MSH and (4) 10 ug/kg ROLIPRAM in combination with 2.5 mg/kg NDP-MSH. Compounds were co-administered with LPS by tail vein injection. […] Administration of 2.5 mg/kg NDP-MSH inhibited TNF-α levels by 64%.

T1 sequence (Q01726 whole entry): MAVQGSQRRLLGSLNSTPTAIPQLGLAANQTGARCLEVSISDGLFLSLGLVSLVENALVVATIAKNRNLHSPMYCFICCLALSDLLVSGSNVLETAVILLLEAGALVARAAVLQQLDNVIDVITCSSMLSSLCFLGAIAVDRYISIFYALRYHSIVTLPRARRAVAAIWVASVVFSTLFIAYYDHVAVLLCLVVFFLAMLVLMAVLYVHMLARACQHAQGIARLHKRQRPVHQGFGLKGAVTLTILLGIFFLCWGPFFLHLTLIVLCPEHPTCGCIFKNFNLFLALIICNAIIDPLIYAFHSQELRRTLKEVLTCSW

Row | Compound | EC50 (human MC-1R) [nM] | inhibition of endotoxin-induced TNF-α accumulation (in words) ([1]; Balb/C mice, s.c. injection or co-injected with endotoxin in the tail vein) | % Inhibition of LPS-induced TNF-α levels [1] [%]
1 | CCCC(=O)C1(c2ccccc2)CCN(C(=O)[C@@H](Cc2ccc(OC)cc2)NC(=O)[C@@H](N)Cc2cncn2C)CC1 [Example 11] | ~20 | – | –
2 | COc1ccc(C2CNC(=O)C2)cc1OC1CCCC1 (stereo not shown) [Rolipram] | – | inhibit | 47
3 | NDP-MSH | – | – | 64
